The record followed here is ChEMBL document CHEMBL1145464, “Modeling the combination of amphotericin B, micafungin, and nikkomycin Z against Aspergillus fumigatus in vitro using a novel response surface paradigm” (2007).

In experiment [1] the test system is Aspergillus fumigatus. Nature of the experiment: Antifungal activity against Aspergillus fumigatus isolate after 48 hrs by CLSI method.
Experiment [2] relates to Aspergillus fumigatus. The experiment is described as follows: Antifungal activity against Aspergillus fumigatus isolate after 24 hrs by CLSI method.

The structures appear in SMILES notation. In brackets after ≈: the same amount, converted by molar mass. *1 amine or outer side, *2 acyl side, *3 side chain or, on linkers, in order; H or OH if unused. Where a SMILES comes first, the peptide text is derived from it. Bridges are numbered along the chain shown (N, C = ends). [ ]: non-standard residue; d: D form. The star is where a group is joined. hTyr(3S-OH,4S-OH,3'-OSO3H) = N[C@H](C(=O)O)[C@H](O)[C@@H](O)c1ccc(O)c(OS(=O)(=O)O)c1; Orn(4R-OH,5R-OH) = O=C([C@H](C[C@@H](O)[C@@H](O)N[*:3])N[*:1])[*:2]; Pro(3S-OH,4S-Me) = C[C@H]1CN[C@H](C(=O)O)[C@H]1O; X1 = CCCCCOc1ccc(-c2cc(-c3ccc(C(=O)*)cc3)no2)cc1; Gln(3R-OH) = NC(=O)C[C@@H](O)[C@H](N)C(=O)O; Hyp = O=C(O)[C@@H]1C[C@@H](O)CN1

In general, MIC refers to the least concentration at which growth counts as inhibited. Lower therefore signals inhibition by little substance. `CCCCCOc1ccc(-c2cc(-c3ccc(C(=O)N[C@H]4C[C@@H](O)[C@@H](O)NC(=O)[C@@H]5[C@@H](O)[C@@H](C)CN5C(=O)[C@H]([C@H](O)CC(N)=O)NC(=O)[C@H]([C@H](O)[C@@H](O)c5ccc(O)c(OS(=O)(=O)O)c5)NC(=O)[C@@H]5C[C@@H](O)CN5C(=O)[C@H]([C@@H](C)O)NC4=O)cc3)no2)cc1` [MICAFUNGIN] (X1-[Orn(4R-OH,5R-OH)]T[Hyp][hTyr(3S-OH,4S-OH,3'-OSO3H)][Gln(3R-OH)][Pro(3S-OH,4S-Me)]; lactam 1-C): the minimal inhibitory concentration (MIC) in the experiment with Aspergillus fumigatus [1] and against Aspergillus fumigatus [2] was no more than 0.03 µg/mL throughout.

For `C[C@@H]1[C@H](O)[C@@H](C)/C=C/C=C/C=C/C=C/C=C/C=C/C=C/[C@H](O[C@@H]2O[C@H](C)[C@@H](O)[C@H](N)[C@@H]2O)C[C@@H]2O[C@](O)(C[C@@H](O)C[C@@H](O)[C@H](O)CC[C@@H](O)C[C@@H](O)CC(=O)O[C@H]1C)C[C@H](O)[C@H]2C(=O)O` (stereo in doubt) [AMPHOTERICIN B], the minimum inhibitory concentration (MIC) against Aspergillus fumigatus [1] and in the experiment with Aspergillus fumigatus [2] was 0.5 µg/mL (≈ 0.541 µM) in each case.

`C[C@@H]([C@H](N)C(=O)N[C@H](C(=O)O)[C@H]1O[C@@H](n2ccc(=O)[nH]c2=O)[C@H](O)[C@@H]1O)[C@H](O)c1ccc(O)cn1` [NIKKOMYCIN]: the MIC came out at 128 µg/mL (≈ 258 µM) with Aspergillus fumigatus [1] and 64 µg/mL (≈ 129 µM) in the experiment on Aspergillus fumigatus [2].
